We go through 1 molecule from article PMC6498537, “Biomimetic synthesis of the natural product salviadione and its hybrids: discovery of tissue-specific anti-inflammatory agents for acute lung injury” (Chemical Science, 2019).

Series [1] in a line: Liver microsomal stability assay, human. Format: in vitro ADME. To be noted: human liver microsomes. The protocol:
(§1) Liver Microsomal Stability Assay. Microsomes in 0.1 M TRIS buffer pH 7.4 (final concentration 0.33 mg/mL), co-factor MgCl2 (final concentration 5 mM) and tested compound (final concentration 0.1 μM, co-solvent (0.01% DMSO) and 0.005% Bovin serum albumin) were incubated at 37°C for 10min. The reaction was started by the addition of NADPH (final concentration 1 mM). Aliquots were sampled at 0, 7, 17, 30 and 60 min, respectively, and methanol (cold in 4 °C) was added to terminate the […]
(§2) reaction. […]

Series [2] in a line: Liver microsomal stability assay, rat. Type of series: in vitro ADME. To be noted: rat liver microsomes. The protocol: as §1, §2
(Liver microsomes are vesicles of endoplasmic reticulum, rich in cytochrome P450 enzymes.)

Details of series [3]: method as in PMID 17504222. To be noted: literature value for 2; ref 8a; cited from earlier work.

As for `Cc1coc2c1C(=O)C(=O)c1c-2ccc2c1CCCC2(C)C` [Compound 2, tanshinone IIA, reference compound], the values for the Clint in vitro in series [1] and in series [2] were 277.17 mL min^–1 g^–1 protein and 666.40 mL min^–1 g^–1 protein, respectively. Moreover, the half-life at 0.1 μM was found to be 7.58 min in series [1] (pH 7.4) and 3.15 min in series [2] (pH 7.4). In series [3], the “F (oral bioavailability)” value was less than 3.5%. Besides, in series [3], the T1/2 was 20.4 min.

One may read the half-life as the time needed for the level to fall by half in the phase considered. A high value points to slow decline.
